Key:
rape = experiment: Test B pre/postemergence rape; type: in vivo, Brassica napus
Procedure, shortened: (§1)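 Herbicidal effect was estimated by eye on a ten-point control scale after plants spent twelve to sixteen days in a greenhouse following soil or foliar treatment. Foliar sprays targeted plants at one to four leaves; all doses were formulated in a non-phytotoxic solvent with surfactant.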

purple nutsedge = experiment: Test B pre/postemergence purple nutsedge; type: in vivo, Cyperus rotundus
Procedure, shortened: as §1

blackgrass = experiment: Test B pre/postemergence blackgrass; type: in vivo, Alopecurus myosuroides
Procedure, shortened: as §1

corn = experiment: Test B pre/postemergence corn; type: in vivo, Zea mays
Procedure, shortened: as §1

wheat = experiment: Test B pre/postemergence wheat; type: in vivo, Triticum aestivum
Procedure, shortened: as §1

wild oat = experiment: Test B pre/postemergence wild oat; type: in vivo, Avena fatua
Procedure, shortened: as §1

surinam grass = experiment: Test B pre/postemergence surinam grass; type: in vivo, Brachiaria decumbens
Procedure, shortened: as §1

crabgrass = experiment: Test B pre/postemergence crabgrass; type: in vivo, Digitaria sanguinalis
Procedure, shortened: as §1

morningglory = experiment: Test B pre/postemergence morningglory; type: in vivo, Ipomoea hederacea
Procedure, shortened: as §1

rice = experiment: Test B flood test rice; type: in vivo, Oryza sativa
Procedure, shortened: (§2)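 Flood test on plants grown to the 2-leaf stage; treated plants kept in greenhouse twelve to sixteen days, then visually rated against controls on a 0 (no effect) to 10 (complete control) scale.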

cocklebur = experiment: Test B pre/postemergence cocklebur; type: in vivo, Xanthium strumarium
Procedure, shortened: as §1

bamyardgrass = experiment: Test B flood test barnyardgrass; type: in vivo, Echinochloa crus-galli
Procedure, shortened: as §2

sugar beet = experiment: Test B pre/postemergence sugar beet; type: in vivo, Beta vulgaris
Procedure, shortened: as §1

bedstraw = experiment: Test B pre/postemergence bedstraw; type: in vivo, Galium aparine
Procedure, shortened: as §1

pigweed = experiment: Test B pre/postemergence pigweed; type: in vivo, Amaranthus retroflexus
Procedure, shortened: as §1

giant foxtail = experiment: Test B pre/postemergence giant foxtail; type: in vivo, Setaria faberii
Procedure, shortened: as §1

[1] = Postemergence, Rate 125 g/ha, scale of 0 to 10 where 0 is no effect and 10 is complete control
[2] = Preemergence, Rate 62 g/ha, scale 0 to 10 (0 no effect, 10 complete control)
[3] = Preemergence, Rate 125 g/ha, 0 is no effect, 10 is complete control
[4] = Preemergence, Rate 250 g/ha, scale 0 to 10, 0 is no effect, 10 is complete control
[5] = Preemergence, Rate 500 g/ha, scale 0 to 10 (0 no effect, 10 complete control)
[6] = Rate 62 g/ha, Postemergence, scale of 0 to 10 where 0 is no effect and 10 is complete control
[7] = Rate 250 g/ha, Postemergence, scale 0 to 10, 0 is no effect, 10 is complete control
[8] = Rate 500 g/ha, Postemergence, scale 0 to 10
[9] = Postemergence (flood test species), Rate 125 g/ha, scale of 0 to 10 where 0 is no effect and 10 is complete control
[10] = Rate 62 g/ha, Postemergence section, flood test species, scale of 0 to 10 where 0 is no effect and 10 is complete control
[11] = Rate 250 g/ha, Postemergence (flood test), scale 0 to 10, 0 is no effect, 10 is complete control

CN(C(=O)n1oc(=O)n(Cc2ccccc2)c1=O)c1ccccc1 [Compound 153]
0: Rape plant response rating (rape; [1]) | Rape plant response rating (rape; [2]) | Rape plant response rating (0 to 10 scale) (rape; [3]) | Rape plant response rating (rape; [4]) | Rape plant response rating (rape; [5]) | Rape plant response rating (rape; [6]) | Plant response rating, Rape (rape; [7]) | Rape plant response rating (rape; [8]) | Nutsedge plant response rating (purple nutsedge; [1]) | Nutsedge plant response rating (purple nutsedge; [2]) | Nutsedge plant response rating (0 to 10 scale) (purple nutsedge; [3]) | Nutsedge plant response rating (purple nutsedge; [4]) | Nutsedge plant response rating (purple nutsedge; [5]) | Nutsedge plant response rating (purple nutsedge; [6]) | Plant response rating, Nutsedge (purple nutsedge; [7]) | Nutsedge plant response rating (purple nutsedge; [8]) | Blackgrass plant response rating (blackgrass; [1]) | Blackgrass plant response rating (blackgrass; [2]) | Blackgrass plant response rating (0 to 10 scale) (blackgrass; [3]) | Blackgrass plant response rating (blackgrass; [4]) | Blackgrass plant response rating (blackgrass; [5]) | Blackgrass plant response rating (blackgrass; [6]) | Plant response rating, Blackgrass (blackgrass; [7]) | Blackgrass plant response rating (blackgrass; [8]) | Corn plant response rating (corn; [1]) | Corn plant response rating (corn; [2]) | Corn plant response rating (0 to 10 scale) (corn; [3]) | Corn plant response rating (corn; [4]) | Corn plant response rating (corn; [5]) | Corn plant response rating (corn; [6]) | Plant response rating, Corn (corn; [7]) | Corn plant response rating (corn; [8]) | Wheat plant response rating (wheat; [2]) | Wheat plant response rating (0 to 10 scale) (wheat; [3]) | Wheat plant response rating (wheat; [4]) | Wheat plant response rating (wheat; [5]) | Wheat plant response rating (wheat; [6]) | Plant response rating, Wheat (wheat; [7]) | Wheat plant response rating (wheat; [8]) | Wild oats plant response rating (wild oat; [2]) | Wild oats plant response rating (0 to 10 scale) (wild oat; [3]) | Wild oats plant response rating (wild oat; [4]) | Wild oats plant response rating (wild oat; [5]) | Wild oats plant response rating (wild oat; [6]) | Plant response rating, Wild oats (wild oat; [7]) | Wild oats plant response rating (wild oat; [8]) | B. signalgrass plant response rating (surinam grass; [1]) | B. signalgrass plant response rating (surinam grass; [2]) | B. signalgrass plant response rating (0 to 10 scale) (surinam grass; [3]) | B. signalgrass plant response rating (surinam grass; [4]) | B. signalgrass plant response rating (surinam grass; [5]) | B. signalgrass plant response rating (surinam grass; [6]) | Plant response rating, B. signalgrass (surinam grass; [7]) | B. signalgrass plant response rating (surinam grass; Rate 500 g/ha, Postemergence, scale of 0 to 10 where 0 is no effect and 10 is complete control) | Crabgrass plant response rating (crabgrass; [1]) | Crabgrass plant response rating (crabgrass; [2]) | Crabgrass plant response rating (0 to 10 scale) (crabgrass; [3]) | Crabgrass plant response rating (crabgrass; [4]) | Crabgrass plant response rating (crabgrass; [5]) | Crabgrass plant response rating (crabgrass; [6]) | Plant response rating, Crabgrass (crabgrass; [7]) | Crabgrass plant response rating (crabgrass; [8]) | Morningglory plant response rating (morningglory; [1]) | Morningglory plant response rating (morningglory; [2]) | Morningglory plant response rating (0 to 10 scale) (morningglory; [3]) | Morningglory plant response rating (morningglory; [4]) | Morningglory plant response rating (morningglory; [5]) | Morningglory plant response rating (morningglory; [6]) | Plant response rating, Morningglory (morningglory; [7]) | Morningglory plant response rating (morningglory; [8]) | Rice plant response rating (rice; [9]) | Rice plant response rating (rice; [10]) | Plant response rating, Rice (rice; [11]) | Rice plant response rating (rice; Rate 500 g/ha, listed under Postemergence (flood test species), scale 0 to 10) | Cocklebur plant response rating (cocklebur; [1]) | Cocklebur plant response rating (cocklebur; [2]) | Cocklebur plant response rating (0 to 10 scale) (cocklebur; [3]) | Cocklebur plant response rating (cocklebur; [4]) | Cocklebur plant response rating (cocklebur; [5]) | Cocklebur plant response rating (cocklebur; [6]) | Plant response rating, Cocklebur (cocklebur; [7]) | Cocklebur plant response rating (cocklebur; [8]) | Barnyardgrass plant response rating (bamyardgrass; [9]) | Barnyardgrass plant response rating (bamyardgrass; [10]) | Plant response rating, Barnyardgrass (bamyardgrass; [11]) | Barnyardgrass plant response rating (bamyardgrass; Rate 500 g/ha, listed under Postemergence (flood test species), scale 0 to 10, 0 no effect, 10 complete control) | Sugarbeets plant response rating (sugar beet; [1]) | Sugarbeets plant response rating (sugar beet; [2]) | Sugarbeets plant response rating (0 to 10 scale) (sugar beet; [3]) | Sugarbeets plant response rating (sugar beet; [4]) | Sugarbeets plant response rating (sugar beet; [5]) | Sugarbeets plant response rating (sugar beet; [6]) | Plant response rating, Sugarbeets (sugar beet; [7]) | Sugarbeets plant response rating (sugar beet; [8]) | Bedstraw plant response rating (bedstraw; [1]) | Bedstraw plant response rating (bedstraw; [2]) | Bedstraw plant response rating (0 to 10 scale) (bedstraw; [3]) | Bedstraw plant response rating (bedstraw; [4]) | Bedstraw plant response rating (bedstraw; [5]) | Bedstraw plant response rating (bedstraw; [6]) | Plant response rating, Bedstraw (bedstraw; [7]) | Bedstraw plant response rating (bedstraw; Rate 500 g/ha, Postemergence, scale 0 to 10, 0 no effect, 10 complete control) | Redroot pigweed plant response rating (pigweed; [1]) | Redroot pigweed plant response rating (pigweed; [2]) | Redroot pigweed plant response rating (0 to 10 scale) (pigweed; [3]) | Redroot pigweed plant response rating (pigweed; [4]) | Redroot pigweed plant response rating (pigweed; [5]) | Redroot pigweed plant response rating (pigweed; [6]) | Plant response rating, Redroot pigweed (pigweed; [7]) | Redroot pigweed plant response rating (pigweed; [8]) | Giant foxtail plant response rating (giant foxtail; [1]) | Giant foxtail plant response rating (giant foxtail; [2]) | Giant foxtail plant response rating (0 to 10 scale) (giant foxtail; [3]) | Giant foxtail plant response rating (giant foxtail; [4]) | Giant foxtail plant response rating (giant foxtail; [5]) | Giant foxtail plant response rating (giant foxtail; [6]) | Plant response rating, Giant foxtail (giant foxtail; [7]) | Giant foxtail plant response rating (giant foxtail; [8])

Source: patent US6737383B1, “Herbicidal oxadiazolidines” (priority 1999, dated 2004)
